Measured values reported in the METLIN SMRT retention time set (Domingo-Almenara et al. 2019).

Experiment: gradient 5% acetonitrile 3 min, to 50% in 2 min, to 85% in 15 min, held 3 min, 100 µL/min
Conditions: column: Zorbax Extend-C18 2.1 x 50 mm; eluents: water / acetonitrile, 0.1% formic acid
Summary of the method: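 Standards, all pure, were combined into mixtures of ~100 molecules and run at 100 μL/min on a Zorbax Extend-C18 column (2.1 × 50 mm, 1.8 μm) with water and acetonitrile, each containing 0.1% formic acid. A coupled quadrupole time-of-flight mass spectrometer operated in positive and negative ionization mode. Retention time values come from computationally picked adduct peaks, each inspected manually.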

Structure (SMILES) | RP-LC retention time [s]
CCOc1ccc(C(=O)N2C[C@@H]3C[C@H]2C[C@@H]3NS(C)(=O)=O)cc1 | 658
COc1ccc(NC(=O)Cc2c(C)nn(-c3nc(C)cs3)c2C)cc1 | 873
CCOc1ccc(NC(=O)C2CCN(S(=O)(=O)c3cc(-c4noc(C)n4)sc3C)CC2)cc1 | 1000
CN(C)C[C@@H]1CN(S(C)(=O)=O)C[C@H]1NC(=O)c1ccsc1 | 569
Cc1cc(C)cc(OCC(=O)N2CCCCC2CCN2CCOCC2)c1 (centres undefined) | 668
CCN(CC)S(=O)(=O)c1ccc2nc(N3CCN(c4ccccn4)CC3)cnc2c1 | 675
Cn1cc(S(=O)(=O)N2CCC(C(=O)N3CCCC3)CC2)cc1C(=O)N1CCCCC1 | 681
Cc1cccc2nc(-c3cccc(Br)c3)c(Nc3ccc4c(c3)OCCO4)n12 | 739
O=S(=O)(c1ccccc1)N1CCC(c2noc(C3CC3)n2)C1 (centres undefined) | 866
CN(C)CCOc1ccc2c(c1)C(=O)/C(=C\c1ncc([N+](=O)[O-])n1C)C2 | 695
Cc1ccc(Nc2c(-c3ccc(O)cc3)nc3cc(C)ccn23)cc1 | 696
CCc1nccn1Cc1noc(-c2ccc(Cl)cc2)n1 | 668
CCc1ccc(NC(=O)c2cc(=O)n(C)c3c2c(=O)n(C)c(=O)n3C)cc1 | 870
O=C(CCC1CCCC1)N1CCN(C(=O)c2cc(-c3cccnc3)n[nH]2)CC1 | 652
CCN1CCN(S(=O)(=O)c2cc(-c3nc(C(C)C)cs3)sc2C)CC1 | 744
O=C(Cn1cc(C(=O)C(=O)N2CCOCC2)c2ccccc21)NCc1ccc2c(c1)OCCCO2 | 704
CCc1noc([C@@H]2CC(F)(F)CN2C(=O)c2cocn2)n1 | 733
Cc1nnsc1C(=O)Nc1ccc(-n2nc(C(F)(F)F)cc2C(F)(F)F)cc1 | 758
O=C(Nc1ccc(-n2cnnn2)cc1)c1ccc(N2CCCC2)nn1 | 620
COc1ccc(OCc2noc(CNC(=O)c3oc4cc(OC)ccc4c3C)n2)cc1 | 925
CCc1ccccc1N1C(=O)CC(N2CCC(C(N)=O)CC2)C1=O (centres undefined) | 591
N#Cc1cccc(CN2CCCC(c3nc(-c4ccncc4)n[nH]3)C2)c1 (centres undefined) | 494

Structure (SMILES) | RP-LC retention time [s]
Cc1cc(C(=O)NC(C)C)n[nH]1 | 592
O=C(COc1cccc(Cl)c1)N1CCN(c2nc(CN3CCCCC3)cs2)CC1 | 681
O=C(NCc1ccco1)C1CCN(c2cc(N3CCSCC3)ncn2)CC1 | 620
CNC(=O)N1CCc2ccc(C(=O)NC(C)C)cc21 | 625
Cc1nnsc1C(=O)Nc1ccc2c(c1)OCC(C)(C)C(=O)N2C | 605
O=C(NCc1ccccn1)C1CCN(C(=O)c2ncn3c2COC(c2ccc(Cl)cc2)C3)CC1 (centres undefined) | 644
O=C(Cn1c(=O)n(Cc2cccnc2)c(=O)c2ncccc21)c1ccc2c(c1)OCCO2 | 554
CCN1C(=O)COc2ccc(-c3csc(NC(=O)c4cc(OC)cc(OC)c4)n3)cc21 | 1050
Cc1cc(C)cc(NS(=O)(=O)c2cc(-c3nc(C(C)C)cs3)cs2)c1 | 1210
COc1ccc2c(c1)C1(CCN(C(=O)Cc3ccccc3Cl)C1)C(=O)N2 (centres undefined) | 773
CCN(C(=O)C1CCCN1S(=O)(=O)c1cc2c(cc1C)NC(=O)C(C)O2)c1cccc(C)c1 (centres undefined) | 868
O=C(Cn1nc2c(Oc3ccc(Cl)cc3)nccn2c1=O)NC1CCCC1 | 810
CCOC(=O)c1c(C)[nH]c(C)c1S(=O)(=O)N1CCC(C(=O)NCc2cccc(C)c2)CC1 | 668
COc1ccc(C2(C(=O)N[C@@H]3CN(S(C)(=O)=O)C[C@H]3CN(C)C)CC2)cc1 | 635
O=C(CSc1nnc(-c2cccnc2)o1)c1ccc2c(c1)OCCO2 | 715
CCCc1nc(NCc2ccc3c(c2)OCO3)ncc1C(=O)O | 791
CC1=C(C(=O)N2CCOCC2)C(c2cc(Br)ccc2F)C2=C(CCCC2=O)N1 (centres undefined) | 659
Cc1cc(-c2ccc(S(=O)(=O)N3CCN(c4ccccn4)CC3)s2)n[nH]1 | 623
Cc1cc(C)n(-c2ccc(C(=O)NC3CCC(C)CC3)cn2)n1 (centres undefined) | 1010
COc1ccc(Cc2nc3nccc(-c4cccnc4)n3n2)cc1 | 692
CC(C)NC(=O)c1c(OCC2CC2)cc(=O)n2c1CCCCC2 | 673
O=C(c1ccc2c(c1)OCO2)N1CCC(F)(F)C(COCC2CC2)C1 (centres undefined) | 933

Now from value to compound:

RP-LC retention time [s] | Structure (SMILES)
621 | COc1ccccc1CC(=O)N1CCN(c2ncnc3c2CCC3)CC1
656 | Cc1ccc(C)c2c(=O)c3c([nH]c12)CCN(CC(=O)Nc1ccccc1Cl)C3
693 | Cc1nnc2c(=O)n(CC(=O)NCc3ccccc3Cl)c3cccnc3n12
948 | CCc1sc(NC(=O)CCS(=O)(=O)Cc2ccccc2)nc1-c1ccccc1
1150 | Cc1ccc(-n2nc(C)c3c(C)c(CCC(=O)NCCc4c[nH]c5ccccc45)c(C)nc32)cc1C
580 | CN(C)c1cccc(C(=O)NCc2[nH]nc3ccccc23)c1
706 | Cc1cc(C)n(CCC(=O)NCc2cccnc2Oc2ccccc2)n1
904 | CCc1ccc(S(=O)(=O)N2CCCN(c3ccc(=O)n(-c4ccccc4)n3)CC2)cc1
844 | COc1ccc(S(=O)(=O)N2CC3CN(C(=O)C(C)Oc4ccccc4)CC(C2)O3)cc1 (centres undefined)
744 | COc1cc2[nH]c3c(SCC(=O)N4CCc5ccccc5C4)ncnc3c2cc1OC
576 | CCN1CCN(CCCNC(=O)CCCn2c3ccccc3c3cnn(C)c(=O)c32)CC1
771 | CCOc1ncccc1CNC(=O)Cc1ccsc1
521 | O=C(c1ccsc1)N1CCN(c2ccccn2)CC1
850 | CCOC(=O)c1c(S(=O)(=O)N2CCC(C(=O)Nc3ccccc3OC)CC2)c(C)n(C)c1C
909 | O=C(CN1C(=O)CCCc2cc(S(=O)(=O)N3CCCCC3)ccc21)NCc1ccccc1Cl
609 | CN1C(=O)c2[nH]nc(-c3ccccc3)c2C1c1cccnc1 (centres undefined)
637 | Cn1c(=O)c(-c2noc(C(=O)N3CCN(c4ccccn4)CC3)n2)nn(-c2ccccc2)c1=O
783 | CC(Oc1ccccc1)C(=O)NCCCn1cccc1 (centres undefined)
789 | O=C(Cn1cncc(-c2nc(-c3ccccc3)cs2)c1=O)N1CCCC1
693 | COCCNC(=O)C1CCCN(C(=O)c2cccc(C(F)(F)F)c2)C1 (centres undefined)
579 | O=C(C1CCCC1)N1CC(N(Cc2ccccn2)C(=O)Nc2ccccc2)C1
814 | COc1cc(C(=O)NCCc2c[nH]c3ccc(C)cc23)cc(OC)c1OC
672 | COc1cc(CNCCc2ccc(S(N)(=O)=O)cc2)ccc1Oc1nnnn1-c1ccccc1

RP-LC retention time [s] | Structure (SMILES)
755 | CCc1noc2nc(C)n(CC(=O)NCc3ccc(OC)cc3)c(=O)c12
970 | Cc1ccc(NC(=O)N2CCC(C(C)C(=O)Nc3cc(C)cc(C)c3)CC2)cc1 (centres undefined)
890 | O=S(=O)(CCc1noc(-c2nccc3ccccc23)n1)c1ccccc1
1010 | Cc1c(Cl)cccc1NC(=O)N1CCCC(C)(C(=O)NCc2ccccc2)C1 (centres undefined)
830 | O=C([C@@H]1C[C@H](F)CN1S(=O)(=O)c1cccs1)N1CCc2ccccc2C1
814 | Cc1oc(-c2ccc(NC(=O)Cc3cccc(F)c3)cc2)nc1Cn1cccn1
637 | Nc1nc(Nc2ccccc2)n[nH]1
942 | Cc1nn(CC(=O)N(C)Cc2ccccc2)c(=O)c2nc(-c3ccccc3)sc12
624 | Fc1cccc(CN2CC[C@@H]3CN(Cc4ccccc4)[C@@H]3C2)c1
836 | Cc1cccc(NC(=O)N2CCC(n3cnc4c(C)cccc4c3=O)CC2)c1
808 | COc1ccc(-c2nn(Cc3ccccc3F)c(=O)c3nc(C)sc23)cc1OC
698 | Cc1ccc2[nH]cc(CCN3CC(C(=O)N4CCc5ccccc5C4)CC3=O)c2c1 (centres undefined)
624 | CC1CCN(CCCNC(=O)C2c3ccccc3C(=O)N(C)C2c2cccs2)CC1 (centres undefined)
630 | CCCN(C(=O)Nc1ccccc1C(=O)OCC)c1nc(-c2ccc(C3CCCCC3)cc2)cs1
716 | COc1c(C(=O)NCCN2CCCCC2C)sc2ccc(Cl)cc12 (centres undefined)
711 | O=C(NCC(O)c1ccc(C(F)(F)F)cc1)c1ccco1 (centres undefined)
634 | Cc1ccc(C(=O)NCc2nc(-c3ccc4c(c3)ncn4C)no2)cc1
720 | Cc1cc(N2CCOCC2)nc(N2CCN(C(=O)c3ccc(-c4ccccc4)cc3)CC2)n1
1040 | O=C(O)CC1(CC(=O)Nc2nc(-c3cccc4ccccc34)cs2)CCCC1
716 | CCn1cc(CN2CCC(C(=O)NCc3ccc(OC)cc3OC)CC2)c2cc(OC)ccc21
1030 | CCCCN1C(=O)C(C)(C(=O)Nc2ccc(F)cc2)Oc2cccnc21 (centres undefined)
714 | Cn1c(C2CCN(C(=O)Nc3cccc(Br)c3)CC2)cc(=O)n2nccc12
